Literature values as cited in patent publication US6475530B1, “Methods and compositions for producing weight loss” (priority 2000, dated 2002).

Tests used:
growth hormone = details: healthy postmenopausal women; 9 grams per day
[1] = single dose of 300 mg. per day; healthy young adults
[2] = mice; substance by itself
cyclooxygenase = details: single large dose

N=C(N)NCCC[C@H](N)C(=O)O [L-arginine]
increase in growth hormone (growth hormone): 72%

CC(=O)Oc1ccccc1C(=O)O [aspirin, acetylsalicylic acid]
time to gastric erosion [1]: 5 to 7 days | weight loss [2]: no weight loss | time for prostaglandin levels to return to baseline (cyclooxygenase): ≤ 6 h

O=C(O)c1cccnc1 [nicotinic acid]
effect on free fatty acids (free fatty acids; given in the daytime): reduces free fatty acids temporarily, but then there is a rebound effect | duration of reduction in free fatty acids (free fatty acids; given nocturnally, constant infusion from 8:00 PM to 6 AM, without rebound effect): 24 h
